Measured values reported in PubChem BioAssay (NCI).
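Compound exposure: 48 hours, 5 concentrations, 96-well plates. GI50 = concentration required for 50% inhibition of growth. At the TGI there is no net growth.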

Experiments:
Test in all cases: NCI-60 cell line screen, 48 h
SR leukemia = test system: SR leukemia
T-47D breast = test system: T-47D breast
HCC-2998 colon = test system: HCC-2998 colon
ACHN renal = test system: ACHN renal
CAKI-1 renal = test system: CAKI-1 renal
KM12 colon = test system: KM12 colon
MOLT-4 leukemia = test system: MOLT-4 leukemia
HCT-15 colon = test system: HCT-15 colon
SN12C renal = test system: SN12C renal
MDA-N = test system: MDA-N

O=[N+]([O-])c1ccc(N/N=C\c2cc(Br)ccc2O)nc1
GI50 (SR leukemia): 0.463 µM
TGI (SR leukemia): > 100 µM
GI50 (T-47D breast): 2.07 µM
TGI (T-47D breast): > 100 µM
GI50 (HCC-2998 colon): 3.18 µM
TGI (HCC-2998 colon): > 100 µM
GI50 (ACHN renal): 0.461 µM
TGI (ACHN renal): 2.56 µM
GI50 (CAKI-1 renal): 0.459 µM
TGI (CAKI-1 renal): 2.35 µM
GI50 (KM12 colon): 1.23 µM
TGI (KM12 colon): 17.5 µM
GI50 (MOLT-4 leukemia): 0.347 µM
TGI (MOLT-4 leukemia): 23.9 µM
GI50 (HCT-15 colon): 0.437 µM
TGI (HCT-15 colon): > 100 µM
GI50 (SN12C renal): 0.807 µM
TGI (SN12C renal): 12.9 µM

O=C(NC1CCCCC1)c1n[nH]nc1Cl
TGI (T-47D breast): > 100 µM
TGI (HCC-2998 colon): > 100 µM
TGI (ACHN renal): > 100 µM
TGI (CAKI-1 renal): > 100 µM
TGI (KM12 colon): > 100 µM
TGI (MOLT-4 leukemia): > 100 µM
TGI (HCT-15 colon): > 100 µM
TGI (SN12C renal): > 100 µM

CC(=O)Nc1nc2c(=O)c3ccccc3sc2s1
TGI (T-47D breast): > 100 µM
TGI (ACHN renal): > 100 µM
TGI (MDA-N): > 100 µM
TGI (CAKI-1 renal): > 100 µM
TGI (KM12 colon): > 100 µM
TGI (MOLT-4 leukemia): > 100 µM
TGI (HCT-15 colon): > 100 µM
TGI (SN12C renal): > 100 µM

Fc1ccc2c(c1)SC1=Nc3sc4cc(F)ccc4[n+]3CN12
TGI (T-47D breast): 55.4 µM
TGI (HCC-2998 colon): 47.5 µM
TGI (ACHN renal): 62.2 µM
TGI (CAKI-1 renal): 39.3 µM
TGI (HCT-15 colon): > 100 µM
TGI (SN12C renal): 51.2 µM

CCCCCCC1OC23OC1CCC2C(O)CCC3O (stereo not given)
TGI (SR leukemia): > 100 µM
TGI (HCC-2998 colon): > 100 µM
TGI (ACHN renal): > 100 µM
TGI (CAKI-1 renal): > 100 µM
TGI (KM12 colon): > 100 µM
TGI (MOLT-4 leukemia): > 100 µM
TGI (HCT-15 colon): > 100 µM
TGI (SN12C renal): > 100 µM

C[C@H]1CCC/C=C/[C@@H]2C[C@H](OC(=O)CN(C)C)C[C@H]2[C@H](O)/C=C/C(=O)O1
TGI (SR leukemia): 3.49 µM
TGI (HCC-2998 colon): 0.235 µM
TGI (ACHN renal): 11.4 µM
TGI (MDA-N): > 100 µM
TGI (CAKI-1 renal): > 44.9 µM
TGI (KM12 colon): 0.235 µM
TGI (MOLT-4 leukemia): 2.79 µM
TGI (HCT-15 colon): 5.54 µM
TGI (SN12C renal): 6.45 µM

CCOC(=O)c1c(C)n(-c2ccc(C)cc2)c(=O)c2ccccc2c(=O)c2c(=O)ccc(=O)c1=2
TGI (T-47D breast): 72.2 µM
TGI (HCC-2998 colon): 27.7 µM
TGI (ACHN renal): 31.9 µM
TGI (CAKI-1 renal): 28.1 µM
TGI (KM12 colon): 30.3 µM
TGI (MOLT-4 leukemia): 11.4 µM
TGI (HCT-15 colon): 35.1 µM
TGI (SN12C renal): 66.7 µM

COc1cc2c(cc1OCCCOc1cc3c(cc1OC)C(=O)N1CCC[C@H]1C(=O)N3)N=C[C@@H]1CCCN1C2=O
TGI (SR leukemia): 3.71 µM
TGI (T-47D breast): 77.3 µM
TGI (HCC-2998 colon): 31 µM
TGI (ACHN renal): 38.5 µM
TGI (CAKI-1 renal): 88.4 µM
TGI (KM12 colon): 67 µM
TGI (MOLT-4 leukemia): 1.41 µM
TGI (HCT-15 colon): > 100 µM
TGI (SN12C renal): 61.5 µM

C/C=C1/C=CC2c3[nH]c4ccccc4c3CCN2C1 (stereo not given)
TGI (SR leukemia): > 400 µM
TGI (HCC-2998 colon): > 400 µM
TGI (ACHN renal): > 400 µM
TGI (CAKI-1 renal): > 400 µM
TGI (KM12 colon): > 400 µM
TGI (MOLT-4 leukemia): > 400 µM
TGI (HCT-15 colon): > 400 µM
TGI (SN12C renal): > 400 µM

c1ccc(C(NC2=NCCO2)C2CC2)cc1 (stereo not given)
TGI (SR leukemia): > 100 µM
TGI (T-47D breast): > 100 µM
TGI (HCC-2998 colon): > 100 µM
TGI (ACHN renal): > 100 µM
TGI (MDA-N): > 100 µM
TGI (KM12 colon): > 100 µM
TGI (MOLT-4 leukemia): > 100 µM
TGI (HCT-15 colon): > 100 µM
TGI (SN12C renal): > 100 µM

COC(=O)C1(CCCCl)CCCN1C(=O)OC(C)(C)C (stereo not given)
TGI (SR leukemia): > 100 µM
TGI (T-47D breast): > 100 µM
TGI (HCC-2998 colon): > 100 µM
TGI (ACHN renal): > 100 µM
TGI (MDA-N): > 100 µM
TGI (CAKI-1 renal): > 100 µM
TGI (KM12 colon): > 100 µM
TGI (HCT-15 colon): > 100 µM
TGI (SN12C renal): > 100 µM
